In patent publication US20220331303A1, “USE OF AN OREXIN 2 RECEPTOR AGONIST FOR THE TREATMENT OF EXCESSIVE SLEEPINESS” (Takeda Pharmaceutical Company Limited, priority 2019, published 2022):

Test system: sleep-deprived healthy volunteers
Assay: Polysomnography (PSG) of recovery sleep after sleep deprivation in healthy volunteers
Type: in vivo, human
Procedure: Exploratory objectives in sleep-deprived healthy volunteers were as follows: • 1. To compare the effects of Compound A (LD and HD) and modafinil (300 mg) on promoting wakefulness as measured by MWT. • 2. To determine PK-PD relationships for selected PD measures. • 3. To evaluate PK-BP relationships in BP change after Compound A administration. • 4. To compare various polysomnography (PSG) parameters between Day −1 (predose) and Day 2 (recovery sleep). • 5. To determine whether there is any difference in the PSG parameters on Day 2 (recovery sleep) between Compound A and placebo or modafinil. • 6. To evaluate the continuous electroencephalogram (EEG) obtained during the MWTs for power spectra changes for Compound A (LD and HD) versus placebo, Compound A (LD and HD) versus modafinil, and modafinil versus placebo.
During the day before dosing on Day 1, participants were administered the KSS at scheduled timepoints. A practice MWT session was performed on Day 1 treatment period 1 (only once during the entire study) to familiarize subjects with the procedures. Study drug was administered in the clinic in the evening on Day 1 of each treatment period. Subjects underwent the MWT and KSS at specified timepoints after the start of the infusion. Subjects were required to stay awake between the MWT tests. Following completion of the IV infusion on Day 2, subjects underwent an additional MWT test. When the final MWT test and cognitive testing were completed, subjects were allowed to sleep (recovery sleep) for approximately 6 hours. PSG recording was collected during this time. Subjects were discharged from the unit after completion on Day 2 with continuing actigraphy upon discharge (to begin on Day −6 before the next treatment period). The interval between each subsequent treatment period was at least 7 days to ensure that the subject's circadian rhythm had returned to a normal cycle. Subject's vital signs, including BP, were monitored during the dosing and testing period. Blood samples for determination of Compound A plasma concentrations were collected at specified timepoints on Days 1 and 2 of each treatment period. Subjects completed the Columbia-Suicide Severity Rating Scale (C-SSRS) during screening, before study drug administration, and before discharge on Day 2 of each treatment period.
The PSGs assess recovery sleep during the day after the end of the sleep deprivation period. There were no corrections for multiple comparisons. […]

[1] = M: Modafinil 300 mg, recovery sleep
[2] = Modafinil 300 mg, recovery sleep

Compound: NC(=O)C[S+]([O-])C(c1ccccc1)c1ccccc1 (stereo not shown) [Modafinil, modafinil, reference compound]
- Stage N3 Duration LS Mean (M: Modafinil 300 mg): 51.61 min
- Stage N3 Duration LS Mean Difference vs placebo Estimate (M: Modafinil 300 mg): -29.78 min
- Stage REM % LS Mean (M: Modafinil 300 mg): 17.46%
- Stage REM % LS Mean Difference vs placebo Estimate (M: Modafinil 300 mg): −3.92%
- Stage REM Duration LS Mean (M: Modafinil 300 mg): 41.38 min
- Stage REM Duration LS Mean Difference vs placebo Estimate (M: Modafinil 300 mg): -25.18 min
- Stage Wake % LS Mean (M: Modafinil 300 mg): 23.01%
- Stage Wake % LS Mean Difference vs placebo Estimate (M: Modafinil 300 mg): 12.71%
- Stage Wake Duration LS Mean (M: Modafinil 300 mg): 60.92 min
- Stage Wake Duration LS Mean Difference vs placebo Estimate (M: Modafinil 300 mg): 25.39 min
- Total Arousal Index LS Mean (M: Modafinil 300 mg): 14.28
- Total Arousal Index LS Mean Difference vs placebo Estimate (M: Modafinil 300 mg): 4.28
- Total Arousal LS Mean (M: Modafinil 300 mg): 51.11
- Total Arousal LS Mean Difference vs placebo Estimate (M: Modafinil 300 mg): 0.70
- Total Leg Movements LS Mean (M: Modafinil 300 mg): 23.91
- Total Leg Movements LS Mean Difference vs placebo Estimate (M: Modafinil 300 mg): 4.97
- Total Leg Movements N1 LS Mean (M: Modafinil 300 mg): 2.19
- Total Leg Movements N1 LS Mean Difference vs placebo Estimate (M: Modafinil 300 mg): 0.93
- Total Leg Movements N2 LS Mean (M: Modafinil 300 mg): 10.10
- Total Leg Movements N2 LS Mean Difference vs placebo Estimate (M: Modafinil 300 mg): 1.56
- Total Leg Movements N3 LS Mean (M: Modafinil 300 mg): 2.61
- Total Leg Movements N3 LS Mean Difference vs placebo Estimate (M: Modafinil 300 mg): 0.99
- Total Leg Movements REM LS Mean (M: Modafinil 300 mg): 5.75
- Total Leg Movements REM LS Mean Difference vs placebo Estimate (M: Modafinil 300 mg): 0.00
- Total Leg Movements with Awakening LS Mean (M: Modafinil 300 mg): 3.14
- Total Leg Movements with Awakening LS Mean Difference vs placebo Estimate (M: Modafinil 300 mg): 1.39
- Total Leg Movements with Microarous LS Mean (M: Modafinil 300 mg): 3.44
- Total Leg Movements with Microarous LS Mean Difference vs placebo Estimate (M: Modafinil 300 mg): 1.43
- Total Leg Movements with Resp Event LS Mean (M: Modafinil 300 mg): 0.04
- Total Leg Movements with Resp Event LS Mean Difference vs placebo Estimate (M: Modafinil 300 mg): −0.01
- Total Leg Movements without Arousal LS Mean (M: Modafinil 300 mg): 20.42
- Total Leg Movements without Arousal LS Mean Difference vs placebo Estimate (M: Modafinil 300 mg): 3.50
- Total Recording Time LS Mean (M: Modafinil 300 mg): 321.98 min
- Total Recording Time LS Mean Difference vs placebo Estimate (M: Modafinil 300 mg): -34.92 min
- Total Sleep Time LS Mean (M: Modafinil 300 mg): 224.54 min
- Total Sleep Time LS Mean Difference vs Placebo Estimate (M: Modafinil 300 mg): -84.93 min
- Wake After Persistent Sleep LS Mean (M: Modafinil 300 mg): 47.63 min
- Wake After Persistent Sleep LS Mean Difference vs placebo Estimate (M: Modafinil 300 mg): 13.00 min
- Wake After Sleep Onset LS Mean (M: Modafinil 300 mg): 60.92 min
- Wake After Sleep Onset LS Mean Difference vs placebo Estimate (M: Modafinil 300 mg): 25.39 min
- PSG Awakenings LS Mean [1]: 5.38
- PSG Awakenings LS Mean Difference vs Placebo Estimate [1]: 0.89
- PSG N1 Latency LS Mean [1]: 6.07 min
- PSG N1 Latency LS Mean Difference vs Placebo Estimate [1]: 0.71 min
- PSG N2 Latency LS Mean [1]: 8.62 min
- PSG N2 Latency LS Mean Difference vs Placebo Estimate [1]: 1.98 min
- PSG N3 Latency LS Mean [1]: 38.00 min
- PSG N3 Latency LS Mean Difference vs Placebo Estimate [1]: 10.73 min
- PSG Per. Slp LS Mean [1]: 26.19 min
- PSG Per. Slp LS Mean Difference vs Placebo Estimate [1]: 19.32 min
- PSG REM Latency LS Mean [1]: 71.67 min
- PSG REM Latency LS Mean Difference vs Placebo Estimate [1]: 16.73 min
- PSG Sleep Efficiency LS Mean [1]: 68.28%
- PSG Sleep Efficiency LS Mean Difference vs Placebo Estimate [1]: −18.44%
- PSG Sleep Onset LS Mean [1]: 5.99 min
- PSG Sleep Onset LS Mean Difference vs Placebo Estimate [1]: 2.00 min
- PSG Spontaneous Arousal Index LS Mean [1]: 11.91
- PSG Spontaneous Arousal Index LS Mean Difference vs Placebo Estimate [1]: 2.98
- PSG Spontaneous Arousal LS Mean [1]: 42.14
- PSG Spontaneous Arousal LS Mean Difference vs Placebo Estimate [1]: −2.93
- PSG Stage N1 % LS Mean [1]: 10.14%
- PSG Stage N1 % LS Mean Difference vs Placebo Estimate [1]: 4.05%
- PSG Stage N1 Duration LS Mean [1]: 19.12 min
- PSG Stage N1 Duration LS Mean Difference vs Placebo Estimate [1]: 0.72 min
- PSG Stage N2 % LS Mean [1]: 50.94%
- PSG Stage N2 % LS Mean Difference vs Placebo Estimate [1]: 4.24%
- PSG Stage N2 Duration LS Mean [1]: 111.09 min
- PSG Stage N2 Duration LS Mean Difference vs Placebo Estimate [1]: -32.99 min
- PSG Stage N3 % LS Mean [1]: 21.61%
- PSG Stage N3 % LS Mean Difference vs Placebo Estimate [1]: −4.22%
- PSG sleep efficiency, LS mean difference vs placebo [2]: −18.44%
- PSG spontaneous arousal index, LS mean difference vs placebo [2]: 2.98
- PSG stage N1 %, LS mean difference vs placebo [2]: 4.05%
- PSG stage N2 duration, LS mean difference vs placebo [2]: -32.99 min
- PSG stage N3 %, LS mean difference vs placebo [2]: −4.22%
- PSG stage N3 duration, LS mean difference vs placebo [2]: −29.78
- PSG stage REM %, LS mean difference vs placebo [2]: −3.92%
- PSG stage REM duration, LS mean difference vs placebo [2]: -25.18 min
- PSG stage wake %, LS mean difference vs placebo [2]: 12.71%
- PSG stage wake duration, LS mean difference vs placebo [2]: 25.39 min
- PSG time to per. slp (persistent sleep), LS mean difference vs placebo [2]: 19.32 min
- PSG total arousal index, LS mean difference vs placebo [2]: 4.28
- PSG total recording time, LS mean difference vs placebo [2]: -34.92 min
- PSG total sleep time, LS mean difference vs placebo [2]: -84.93 min
- PSG wake after sleep onset, LS mean difference vs placebo [2]: 25.39 min
